Assay results taken from patent publication US20250376479A1, “EXATECAN DERIVATIVES AND USES THEREOF” (priority 2024, published 2025).

system: NCI-H524; assay: Cytotoxicity test, luminescent cell viability; format: cell-based; details: Homo sapiens; NCI-H524 (SCLC), 72-hour incubation
Description: (§1) Cytotoxicity of compounds was investigated using SHP77 (SCLC ATCC No. CRL-2195), NCI-H82 (SCLC, Jennio-bio No. JNO-22126A), NCI-H524 (SCLC, Pricella NO. CL-0403), NCI-H226 (Lung cancer, Pricella NO. CL-0396), NCI-H460 (LCLC, Pricella NO. CL-0299), OVCAR3 (Ovarian cancer, ATCC No. HTB-161), OV90 (Ovarian cancer, ATCC No. CRL-11732), LS1034 (Colon carcinoma, cobioer No. CBP60013), HT55 (Colon carcinoma, cobioer No. CBP60012), MDA-MB-468 (Breast cancer, ATCC No.htb-132) and NCI-N87 (Stomach cancer, ATCC No.CRL-5822). In brief, 5,000 cells/well of cancer cells were platted in white 96-well assay plates with flat clear bottom (Cat. No. BS-MP-96W, Biosharp) (excluding edge wells, which contained medium or PBS only) in 90 μL basic culture medium and were grown at 37° C. in a humidified incubator at 5% CO2 atmosphere. After incubation overnight, each compound was added to the respective wells in an amount of 10 μl of 10× concentrate tests from 100 nM to 0.015 nM. After additional 72-hour incubation, plates were removed from incubator and equilibrated to room temperature. After approximately 30 mins, 50 μL of Cell counting-lite 2.0 Luminescent Cell Viability Assay (Cat. No. G7573, Promega) were added to each well. After shaking the plates at 450 rpm for 3 mins followed by 10-min incubation without shaking, luminescence was measured on the Envision plate reader (Equipment No. 2104, PerkinElmer) with integration time of 250 ms per well. Curves of luminescence versus concentration (nM) were fitted with GraphPad Prism Software.

Structure (SMILES) | IC50
CC[C@@]1(O)C(=O)OCc2c1cc1n(c2=O)Cc2c-1nc1cc(F)c(C)c3c1c2[C@H](NC(=O)C1CCCO1)CC3 (stereo partly drawn) [Compound 7] | 39.5 nM
CC[C@@]1(O)C(=O)OCc2c1cc1n(c2=O)Cc2c-1nc1cc(F)c(C)c3c1c2[C@H](NC(=O)CCOC)CC3 [Compound 5] | 21.5 nM

system: NCI-H82; assay: Cytotoxicity test, luminescent cell viability; format: cell-based; details: Homo sapiens; NCI-H82 (SCLC), 72-hour incubation
Description: as §1

Structure (SMILES) | IC50
CC[C@@]1(O)C(=O)OCc2c1cc1n(c2=O)Cc2c-1nc1cc(F)c(C)c3c1c2[C@H](NC(=O)C1CCCO1)CC3 (stereo partly drawn) [Compound 7] | 171 nM
CC[C@@]1(O)C(=O)OCc2c1cc1n(c2=O)Cc2c-1nc1cc(F)c(C)c3c1c2[C@H](NC(=O)CCOC)CC3 [Compound 5] | 288 nM

system: MDA-MB-468; assay: Cytotoxicity test, luminescent cell viability; format: cell-based; details: Homo sapiens; MDA-MB-468 (Breast cancer), 72-hour incubation
Description: as §1

Structure (SMILES) | IC50
CC[C@@]1(O)C(=O)OCc2c1cc1n(c2=O)Cc2c-1nc1cc(F)c(C)c3c1c2[C@H](NC(=O)C1CCCO1)CC3 (stereo partly drawn) [Compound 7] | 4.8 nM
CC[C@@]1(O)C(=O)OCc2c1cc1n(c2=O)Cc2c-1nc1cc(F)c(C)c3c1c2[C@H](NC(=O)CCOC)CC3 [Compound 5] | 5.1 nM

system: NCI-H226; assay: Cytotoxicity test, luminescent cell viability; format: cell-based; details: Homo sapiens; NCI-H226 (Lung cancer), 72-hour incubation
Description: as §1

Structure (SMILES) | IC50
CC[C@@]1(O)C(=O)OCc2c1cc1n(c2=O)Cc2c-1nc1cc(F)c(C)c3c1c2[C@H](NC(=O)C1CCCO1)CC3 (stereo partly drawn) [Compound 7] | 17.9 nM
CC[C@@]1(O)C(=O)OCc2c1cc1n(c2=O)Cc2c-1nc1cc(F)c(C)c3c1c2[C@H](NC(=O)CCOC)CC3 [Compound 5] | 9.8 nM

system: LS1034; assay: Cytotoxicity test, luminescent cell viability; format: cell-based; details: Homo sapiens, LS-1034; LS1034 (Colon carcinoma), 72-hour incubation
Description: as §1

Structure (SMILES) | IC50
CC[C@@]1(O)C(=O)OCc2c1cc1n(c2=O)Cc2c-1nc1cc(F)c(C)c3c1c2[C@H](NC(=O)C1CCCO1)CC3 (stereo partly drawn) [Compound 7] | 170 nM
CC[C@@]1(O)C(=O)OCc2c1cc1n(c2=O)Cc2c-1nc1cc(F)c(C)c3c1c2[C@H](NC(=O)CCOC)CC3 [Compound 5] | 158 nM

system: HT55; assay: Cytotoxicity test, luminescent cell viability; format: cell-based; details: Homo sapiens; HT55 (Colon carcinoma), 72-hour incubation
Description: as §1

Structure (SMILES) | IC50
CC[C@@]1(O)C(=O)OCc2c1cc1n(c2=O)Cc2c-1nc1cc(F)c(C)c3c1c2[C@H](NC(=O)C1CCCO1)CC3 (stereo partly drawn) [Compound 7] | 104 nM
CC[C@@]1(O)C(=O)OCc2c1cc1n(c2=O)Cc2c-1nc1cc(F)c(C)c3c1c2[C@H](NC(=O)CCOC)CC3 [Compound 5] | 192 nM

system: SHP77; assay: Cytotoxicity test, luminescent cell viability; format: cell-based; details: Homo sapiens; SHP77 (SCLC), 72-hour incubation
Description: as §1

Structure (SMILES) | IC50
CC[C@@]1(O)C(=O)OCc2c1cc1n(c2=O)Cc2c-1nc1cc(F)c(C)c3c1c2[C@H](NC(=O)C1CCCO1)CC3 (stereo partly drawn) [Compound 7] | 236 nM
CC[C@@]1(O)C(=O)OCc2c1cc1n(c2=O)Cc2c-1nc1cc(F)c(C)c3c1c2[C@H](NC(=O)CCOC)CC3 [Compound 5] | 202 nM

system: NCI-N87; assay: Cytotoxicity test, luminescent cell viability; format: cell-based; details: Homo sapiens; NCI-N87 (Stomach cancer), 72-hour incubation; read-out: IC50 NC-N87
Description: as §1

Structure (SMILES) | IC50
CC[C@@]1(O)C(=O)OCc2c1cc1n(c2=O)Cc2c-1nc1cc(F)c(C)c3c1c2[C@H](NC(=O)C1CCCO1)CC3 (stereo partly drawn) [Compound 7] | 7.4 nM
CC[C@@]1(O)C(=O)OCc2c1cc1n(c2=O)Cc2c-1nc1cc(F)c(C)c3c1c2[C@H](NC(=O)CCOC)CC3 [Compound 5] | 16.8 nM

system: NCI-H460; assay: Cytotoxicity test, luminescent cell viability; format: cell-based; details: Homo sapiens; NCI-H460 (LCLC), 72-hour incubation
Description: as §1

Structure (SMILES) | IC50
CC[C@@]1(O)C(=O)OCc2c1cc1n(c2=O)Cc2c-1nc1cc(F)c(C)c3c1c2[C@H](NC(=O)C1CCCO1)CC3 (stereo partly drawn) [Compound 7] | 11.2 nM
CC[C@@]1(O)C(=O)OCc2c1cc1n(c2=O)Cc2c-1nc1cc(F)c(C)c3c1c2[C@H](NC(=O)CCOC)CC3 [Compound 5] | 19.4 nM

system: OVCAR3; assay: Cytotoxicity test, luminescent cell viability; format: cell-based; details: Homo sapiens, OVCAR-3; OVCAR3 (Ovarian cancer), 72-hour incubation
Description: as §1

Structure (SMILES) | IC50
CC[C@@]1(O)C(=O)OCc2c1cc1n(c2=O)Cc2c-1nc1cc(F)c(C)c3c1c2[C@H](NC(=O)C1CCCO1)CC3 (stereo partly drawn) [Compound 7] | 144 nM
CC[C@@]1(O)C(=O)OCc2c1cc1n(c2=O)Cc2c-1nc1cc(F)c(C)c3c1c2[C@H](NC(=O)CCOC)CC3 [Compound 5] | 270 nM

system: OV90; assay: Cytotoxicity test, luminescent cell viability; format: cell-based; details: Homo sapiens, OV-90; OV90 (Ovarian cancer), 72-hour incubation
Description: as §1

Structure (SMILES) | IC50
CC[C@@]1(O)C(=O)OCc2c1cc1n(c2=O)Cc2c-1nc1cc(F)c(C)c3c1c2[C@H](NC(=O)C1CCCO1)CC3 (stereo partly drawn) [Compound 7] | 26 nM
CC[C@@]1(O)C(=O)OCc2c1cc1n(c2=O)Cc2c-1nc1cc(F)c(C)c3c1c2[C@H](NC(=O)CCOC)CC3 [Compound 5] | 9.6 nM

system: not listed separately; assay: Membrane permeability test (Caco-2 monolayer); format: in vitro ADME; details: human, Caco-2, pH 7.4
Protocol: Caco-2 cells purchased from ATCC were seeded onto 0.4 μm pore polycarbonate membranes (PC) in 96-well Corning Insert plates at 3.5×10^4 cells/cm^2, and refreshed medium every 4˜5 days until to the 21st to 28th day for confluent cell monolayer formation.
The transport buffer in the study was HBSS with 10.0 mM HEPES at pH 7.40±0.05. Each test compound was tested at 2.00 μM in the presence or absence of 1.00 μM zosuquidar bi-directionally in duplicate. Digoxin was tested at 10.0 μM in the presence or absence of 1.00 μM zosuquidar bi-directionally in duplicate, while nadolol and metoprolol were tested at 2.00 μM in the absence of zosuquidar in A to B direction in duplicate. Final DMSO concentration was adjusted to less than 1%. The plate was incubated for 2 hours in CO2 incubator at 37.0° C., with 5% CO2 at saturated humidity without shaking. And all samples after mixed with acetonitrile containing internal standard were centrifuged at 3220×g for 10 min. Concentrations of test compounds in starting solution, donor solution and receiver solution were quantified by LC-MS/MS methodologies, using peak area ratio of analyte/internal standard. And permeation of lucifer yellow through the monolayer was measured to evaluate the cellular integrity.
The apparent permeability coefficient Papp (cm/s) was calculated using the equation: […]
where dCr/dt is the cumulative concentration of compound in the receiver chamber as a function of time; Vr is the solution volume in the receiver chamber (0.0750 mL on the apical side, 0.250 mL on the basolateral side); A is the surface area for the transport, i.e., 0.143 cm2 for the area of the monolayer; C0 is the initial concentration in the donor chamber.

Structure (SMILES) | Papp A→B at 2 h, 2 μM
CC[C@@]1(O)C(=O)OCc2c1cc1n(c2=O)Cc2c-1nc1cc(F)c(C)c3c1c2[C@H](NC(=O)C1CCCO1)CC3 (stereo partly drawn) [Compound 7] | 0.56 ×10⁻⁶ cm/s
CC[C@@]1(O)C(=O)OCc2c1cc1n(c2=O)Cc2c-1nc1cc(F)c(C)c3c1c2[C@H](NC(=O)CCOC)CC3 [Compound 5] | 0.105 ×10⁻⁶ cm/s
